{"source": "patent US20110046223A1", "about": "“TREATMENT OF NEUROFIBROMATOSIS” (RAMOT AT TEL-AVIV UNIVERSITY LTD., priority 2006, published 2011)", "key": {"[1]": {"test_system": "ST88-14, 90-8, T265P21 and non-NF-1 STS26T cells", "experiment": "cell growth, photomicrographs of control and FTS-treated cells", "type": "cell-based, human", "settings": "50 μM FTS, two days", "procedure": "(§1) The human NF-1 MPNST cell lines ST88-14, T265P21 and 90-8 and the non-NF-1 human MPNST cell line STS26T were obtained from Dr. Nancy Ratner. T265P21, 90-8, and ST88-14 cells were maintained in RPMI/15% fetal calf serum (FCS) medium and STS26T cells were maintained in DMEM/10% FCS, as described in Weisz, B., et al., supra. Cells were plated at a density of 1×10^6 cells per 10-cm plate for biochemical and immunoblotting assays, 2.5×10^3 cells/well in 24-well plates for cell-growth assays, or on glass cover slips (5×10^4 cells per 35-mm dish) for labeling of actin cytoskeletal elements. The cells were incubated for 24 hours, treated with the indicated concentration of FTS or with the vehicle (0.1% DMSO) (control) for the times specified in each of the experiments, and then subjected to the various assays as described below. The effect of FTS on cell growth was estimated by direct counting of cells collected from each well, as described in Weisz, B., et al., supra.\n(§2) To determine the effects of the Ras inhibitor FTS on the growth rates of the NF-1 cell lines ST88-14, 90-8, T265P21 and the non-NF-1 STS26T cells, the cells were grown for two days in the absence and in the presence of 50 μM FTS, and then photomicrographed. […] Additionally, cells were grown for three days and then detached, collected, and counted as described in Methods to determine dose-dependent inhibition by FTS."}, "STS26T cells": {"test_system": "STS26T cells", "experiment": "cell growth, direct counting of cells, FTS dose-response", "type": "cell-based", "settings": "Homo sapiens, STS-26T, 72 h, grown three days, FTS 12.5-100 μM, means±SD, n=4, read-out: estimated IC50, decrease in cell number", "procedure": "as §1, §2"}, "ST88-14 cells": {"test_system": "ST88-14 cells", "experiment": "cell growth, direct counting of cells, FTS dose-response", "type": "cell-based", "settings": "Homo sapiens, 72 h, grown three days, FTS 12.5-100 μM, means±SD, n=4, read-out: estimated IC50, decrease in cell number", "procedure": "as §1, §2"}, "90-8 cells": {"test_system": "90-8 cells", "experiment": "cell growth, direct counting of cells, FTS dose-response", "type": "cell-based", "settings": "Homo sapiens, 72 h, grown three days, FTS 12.5-100 μM, means±SD, n=4, read-out: estimated IC50, decrease in cell number", "procedure": "as §1, §2"}, "T265P21 cells": {"test_system": "T265P21 cells", "experiment": "cell growth, direct counting of cells, FTS dose-response", "type": "cell-based", "settings": "Homo sapiens, 72 h, grown three days, FTS 12.5-100 μM, means±SD, n=4, read-out: estimated IC50, decrease in cell number", "procedure": "as §1, §2"}, "RalA-GTP": {"test_system": "RalA-GTP", "experiment": "steady-state RalA-GTP, GST-RalBD pulldown assay", "type": "cell-based, human", "procedure": "Unless otherwise indicated, cells were lysed 48 hours after being treated with lysis buffer, as described in Haklai, et al., supra. […] Protein bands were visualized by ECL and quantified by densitometry with Image Master VDS-CL (Amersham) using TINA 2.0 software (Ray Tests). To obtain reliable comparisons between replicated experiments for statistical analysis, a standardization procedure was used, in which the density of each given protein band as recorded with its specific Ab, was normalized. […] The standard average density was defined as 1.0, and each of the individually determined bands was related to this value. […] Actin cytoskeletal elements were labeled with rhodamine-phalloidin, and digital fluorescence images were collected on a Zeiss LSM 510 confocal microscope fitted with fluorescein and rhodamine filters, as described in Gana-Weisz, M., et al., supra.\nNext, to determine whether down-regulation of active Ras by FTS was accompanied by inhibition of Ras signaling, the effect of FTS on steady-state levels of phospho-ERK, phospho-Akt, and RalA-GTP as read-outs of the three prominent Ras pathways, Ras/Raf/MEK/ERK, Ras/PI3K/Akt, and Ras/RalGEF/RalA, respectively, was examined. […]"}}}
{"smiles": "CC(C)=CCC/C(C)=C/CC/C(C)=C/CSc1ccccc1C(=O)O", "note": "[FTS, S-farnesylthiosalicylic acid]", "values": [{"measurement": "cell death", "setting": "[1]", "value": "no significant cell death"}, {"measurement": "cell number (photomicrographs)", "setting": "[1]", "value": "drug-induced reduction in cell number"}, {"measurement": "IC50", "setting": "STS26T cells", "value": "53 ± 10", "unit": "µM"}, {"measurement": "IC50", "setting": "ST88-14 cells", "value": "42 ± 13", "unit": "µM"}, {"measurement": "IC50", "setting": "90-8 cells", "value": "42 ± 9", "unit": "µM"}, {"measurement": "IC50", "setting": "T265P21 cells", "value": "35 ± 7", "unit": "µM"}, {"measurement": "steady-state RalA-GTP", "setting": "RalA-GTP; all NF-1 cell lines", "value": "significant reduction"}, {"measurement": "steady-state RalA-GTP", "setting": "RalA-GTP; non-NF-1 STS26T cells", "value": "significant reduction"}]}
